Assay results published in ChEMBL document CHEMBL1131204, “Flavonoid derivatives as adenosine receptor antagonists: a comparison of the hypothetical receptor binding site based on a comparative molecular field analysis model” (J Med Chem, 1998).
Where “and” joins values, the source holds several entries; their conditions need not be identical. Equal values may be shown once.

Assays:
[1] = target: T1, Adenosine receptor A3 (Homo sapiens) (UniProt P0DMS8); test: Ability to displace [125I]-AB-MECA binding from adenosine A3 receptor.
T1 sequence (whole entry): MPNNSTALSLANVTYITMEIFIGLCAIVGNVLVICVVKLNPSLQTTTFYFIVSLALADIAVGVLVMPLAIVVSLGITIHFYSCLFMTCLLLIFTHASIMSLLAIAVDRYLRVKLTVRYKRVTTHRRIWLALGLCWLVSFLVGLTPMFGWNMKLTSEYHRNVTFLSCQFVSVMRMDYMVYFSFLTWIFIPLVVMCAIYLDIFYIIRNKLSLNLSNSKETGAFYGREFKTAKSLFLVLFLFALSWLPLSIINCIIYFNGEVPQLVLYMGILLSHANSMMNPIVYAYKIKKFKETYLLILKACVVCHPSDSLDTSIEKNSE

[2] = target: Adenosine receptor A2a (Rattus norvegicus) (UniProt P30543); test: Ability to displace [3H]-CGS- 21680 binding from adenosine A2A receptor.
[3] = target: T2, Adenosine receptor A1 (Rattus norvegicus) (UniProt P25099); test: Ability to displace [3H]N6-phenylisopropyladenosine binding from adenosine A1 receptor.
T2 sequence (whole entry): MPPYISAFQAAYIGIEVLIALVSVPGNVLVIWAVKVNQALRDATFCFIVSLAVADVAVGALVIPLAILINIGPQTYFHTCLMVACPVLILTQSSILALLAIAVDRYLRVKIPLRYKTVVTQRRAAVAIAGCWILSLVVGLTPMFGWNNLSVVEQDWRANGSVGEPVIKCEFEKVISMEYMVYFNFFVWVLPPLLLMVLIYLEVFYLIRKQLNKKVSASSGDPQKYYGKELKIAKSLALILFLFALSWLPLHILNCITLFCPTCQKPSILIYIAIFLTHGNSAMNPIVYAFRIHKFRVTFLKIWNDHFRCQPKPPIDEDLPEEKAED

Sequence of Adenosine receptor A2a (Rattus norvegicus) (P30543 whole entry): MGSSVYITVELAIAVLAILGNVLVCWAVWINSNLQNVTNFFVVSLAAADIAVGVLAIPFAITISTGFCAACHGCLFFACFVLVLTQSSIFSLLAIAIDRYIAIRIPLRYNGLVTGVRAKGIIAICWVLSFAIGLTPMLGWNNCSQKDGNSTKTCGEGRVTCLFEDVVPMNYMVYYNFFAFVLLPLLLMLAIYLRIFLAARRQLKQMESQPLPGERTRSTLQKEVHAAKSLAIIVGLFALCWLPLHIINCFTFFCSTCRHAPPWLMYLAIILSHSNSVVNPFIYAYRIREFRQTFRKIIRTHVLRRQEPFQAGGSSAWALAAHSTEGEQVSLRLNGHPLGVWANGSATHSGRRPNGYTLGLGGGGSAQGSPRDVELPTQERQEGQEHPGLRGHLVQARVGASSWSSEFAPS

Compound	pKi(uM) [1]	pKi(uM) [2]	pKi(uM) [3]
COc1cc(O)c2c(c1)OC(c1ccc(O)cc1)CC2=O (stereo unspecified)	-0.53	-1.55	-0.91
O=c1c(O)c(-c2ccc(O)c(O)c2)oc2cc(O)cc(O)c12		-0.84	
CCOc1c2ccoc2cc2oc(/C=C/c3ccccc3)cc(=O)c12	-0.06	-1.53	-1.55
COC1(OC)Cc2oc(-c3ccc(O)cc3O)c(CC=C(C)C)c(=O)c2C(O)=C1/C=C/C(C)C	-0.66		
COc1ccc2c(=O)c(O)c(-c3ccc(O)c(O)c3)oc2c1	-0.14		
COc1ccc(-c2cc(=O)c3c(O)cc(C)cc3o2)cc1	-1.7	-1.45	-0.53
CCOc1cc(O)c2c(=O)c(OCC)c(-c3ccccc3)oc2c1	0.13	-1.8	
CCOc1ccc(-c2oc3cc(OCC)cc(O)c3c(=O)c2OCC)c(OCC)c1	-0.68		
O=C1CC(c2ccc(O)cc2)Oc2ccccc21 (stereo unspecified)	-1.36		-1.06
COc1cc2oc(-c3ccc(O)cc3)cc(=O)c2c(O)c1OC	-0.5	-0.48	-0.08
CCOc1c(-c2c(C)cc(C)cc2C)oc2ccc(Cl)cc2c1=O	-0.72		
CCOc1c2ccoc2cc2oc(/C=C/C=C/c3ccccc3)cc(=O)c12	-1.66	-2.22	
O=c1c(O)c(-c2ccccc2)oc2cc(O)cc(O)c12	-0.23		
COc1ccc2c(c1)C(=O)C(O)C(C#Cc1ccccc1)O2 (stereo unspecified)	-0.91		-1.7
COc1c2ccoc2cc2oc(C=O)cc(=O)c12	-1.95		
Cc1ccc(-c2oc3ccc(Cl)cc3c(=O)c2Cl)c(C(C)C)c1	0.25		
COc1c2ccoc2cc2oc(/C=N/c3ccccc3)cc(=O)c12	-0.96		
COc1ccc(-c2oc3cc(OC)cc(OC)c3c(=O)c2OC)cc1	-0.53		-0.03
O=c1cc(-c2ccccc2)oc2cc(O)ccc12		-0.43	-0.48
O=c1cc(-c2ccccc2)oc2ccccc12	-1.23	-0.54	-0.52
COc1ccc2oc(C#Cc3ccccc3)c(O)c(=O)c2c1	-1.38		

Compound	pKi(uM) [1]	pKi(uM) [2]	pKi(uM) [3]
COc1c2ccoc2cc2oc(C)cc(=O)c12	-1.78	-1.63	
O=c1c(Cl)c(-c2ccccc2)oc2ccc(Cl)cc12		-1.74	
O=c1c(Cl)c(-c2ccccc2)oc2ccccc12	-1.06	-1.4	
COc1ccc2c(c1)C(=O)C(O)C(/C=C/c1ccccc1)O2 (stereo unspecified)	-1.32		
COc1cc(OC)c2c(=O)c(OC)c(-c3ccccc3)oc2c1	0.08 and -0.09	-0.81	0.29
COc1ccc(-c2cc(=O)c3ccc(O)cc3o2)cc1OC		-1.54	-1.27
O=c1cc(-c2ccccc2)oc2cccc(O)c12		-0.79	
COc1c(O)cc2oc(-c3ccc(O)cc3)cc(=O)c2c1O		-0.88	-0.21
COc1cc(OC)c(-c2oc3ccccc3c(=O)c2O)c(OC)c1	-1.7		-0.86
CC(=O)Oc1cc(OC(C)=O)c2c(c1)OC(c1ccccc1)C(OC(C)=O)C2=O (stereo unspecified)		-1.75	
O=C1c2ccccc2OC(c2ccccc2O)C1O (stereo unspecified)			-1.96
CCOc1cc(OCC)c2c(=O)c(OCC)c(-c3ccccc3)oc2c1	0.44	-0.52	0.22
O=c1cc(-c2ccccc2)oc2c1ccc1ccccc12		-0.12	0.1
CCOc1ccc(-c2oc3cc(OCC)cc(OCC)c3c(=O)c2OCC)c(OCC)c1	-0.86	-1.42	
O=C1CC(c2ccccc2O)Oc2ccccc21 (stereo unspecified)	-0.78	-1.25	-0.42
COc1c2ccoc2cc2oc(/C=C/c3ccccc3)cc(=O)c12	-0.92	-1.06	-1.51
COc1cc(OC)c2c(=O)c(OC)c(-c3cc(OC)c(OC)c(OC)c3)oc2c1	-0.82		
O=C1CC(c2ccccc2)Oc2ccccc21 (stereo unspecified)	-1.21		
COc1ccc(-c2cc(=O)c3c(OC)c(OC)c(OC)cc3o2)cc1	-0.65		-0.11
O=c1cc(-c2ccc(O)cc2)oc2cc(O)cc(O)c12		-0.88	-0.48
CC(=O)Oc1cc(OC(C)=O)c2c(=O)c(OC(C)=O)c(-c3ccccc3)oc2c1	-1.24		-1.06
